Patent US11142530B2, “Deep-sea fungus-derived anthraquinone compound and use thereof in preparing anti-allergic drugs” (Third Institute of Oceanography, Ministry of Natural …, priority 2019, dated 2021)
Where two headings read alike, the source gives them in different places.

System: RBL-2H3 cells
Experiment: IgE-mediated RBL-2H3 cell degranulation model (β-hexosaminidase release), in vitro anti-allergic activity test
Type: cell-based
Conditions: for Degranulation efficiency (%): RBL-2H3 cells, anti-DNP-IgE sensitized, DNP-BSA stimulated
From the text: Currently available mast cell lines are not suitable for in vitro subculturing, and thus it is difficult to obtain a large number of homogeneous cells for experimental research. The RBL-2H3 cell line is similar to mast cells in cell structure and degranulation mechanism, and more importantly, it is possible to realize a stable subculturing of the line. Thus, the RBL-2H3 cell line is usually used as an alternative model of mast cells in the studies on mast cell functions and further researches of allergic diseases.
In the present embodiment, an IgE-mediated RBL-2H3 cell model was employed to measure the degranulation efficiency of sensitized cells, followed by a calculation to obtain the inhibitory of the compound against the cell degranulation and to further obtain the anti-allergic activity of the compound.
This embodiment was conducted with the following four groups:
(1) negative control group (non-activated group);
(2) blank control group (DNP-BSA-activated group);
(3) positive control group (loratadine group); and
(4) compound group (the compound obtained in step (5) in Embodiment 1).
This embodiment was conducted as follows:
(1) Sensitizing the cells: The RBL-2H3 cells were collected with trypsinization, and added into 96-well plates, 100 μL in each well, followed by the addition of anti-DNP-IgE to a final concentration of 1 μg/mL to sensitize the cells, and incubated in an incubator overnight (37° C., 5% CO2).
(2) Pre-protection of the cells: In the negative control group, 5, μL of PBS and 95 μL of Tyrode's buffer solution were added to each sample. In the blank control group, 5 μL of DNP-BSA and 95 μL of Tyrode's buffer solution were added to each sample. In the positive control group, 5 μL of loratadine (of various concentrations) and 95 μL of Tyrode's buffer solution were added to each sample. In the compound group, 5 μL of the compound solution (in PBS, with a final concentration of 1.25, 0. 625, 0.3125, 0.15625, 0.078125, or 0.0390625 μg/mL) and 95 μL of Tyrode's buffer solution were added to each sample. After the addition of above reagents, 95 μL of the cells were then added to culture plates, and incubated for 1 hour.
(3) Stimulating the cells: In the negative control group, 5 μL of PBS was added to each sample. In the other three groups, 5 μL of DNP-BSA was added to a final concentration of 1 μg/mL to stimulate the RBL-2H3 cells, and incubated for 1 hour.
(4) Disintegration of the cells: The culture supernatants were collected, and then the Tyrode's buffer solution (containing 0.1% of Triton X-100) was added to the culture plates to disintegrate the cells so as to obtain lysate solutions.
(5) β-hexosaminidase activity measurement: The supernatants and the lysate solutions were added to 96-well plates for fluorescent assays, 25 μL in each well, followed by the addition of 100 μL of 1.2 mM 4-methylumbelliferyl-N-acetyl-β-d-glucosaminide to allow reaction at 37° C. for 30 minutes. Then the fluorescence (excitation wavelength: 360 nm, emission wavelength: 450 nm) of the solution in each well was measured using a microplate reader.
(6) Calculation of degranulation efficiency:
Degranulation efficiency was calculated through the following expression:
wherein, FS represent the fluorescence of supernatant, and FL represents the fluorescence of lysate solution.
(7) Calculation of inhibitory rate on allergy
Inhibitory rate was calculated with the following expression:
wherein DEB represents the degranulation efficiency of blank control group, DEC represents the degranulation efficiency of compound group and DEN represents the degranulation efficiency of negative control group.

[1] = Rattus norvegicus, RBL-2H3, read-out: Inhibitory rate (%)

| IC50 (Rattus norvegicus, concentration of the compound when the inhibitory rate is 50%, RBL-2H3 degranulation, read-out: IC50) [µM] | Structure (SMILES) | inhibitory effect on mast cell degranulation (IgE-mediated RBL-2H3 cell model, result in words) | Degranulation efficiency (%) (compound 0.0390625 μg/mL) | Degranulation efficiency (%) (compound 0.078125 μg/mL) | Degranulation efficiency (%) (compound 0.15625 μg/mL) | Degranulation efficiency (%) (compound 0.3125 μg/mL) | Degranulation efficiency (%) (compound 0.625 μg/mL) | Degranulation efficiency (%) (compound 1.25 μg/mL) | IC50 (Rattus norvegicus, RBL-2H3) [µM] | inhibition at 0.0390625 µg/mL [1] [%] | inhibition at 0.078125 µg/mL [1] [%] | inhibition at 0.15625 µg/mL [1] [%] | inhibition at 0.3125 µg/mL [1] [%] | inhibition at 0.625 µg/mL [1] [%] | inhibition at 1.25 µg/mL [1] [%] |
| --- | --- | --- | --- | --- | --- | --- | --- | --- | --- | --- | --- | --- | --- | --- | --- |
| 91.6 | CCOC(=O)N1CCC(=C2c3ccc(Cl)cc3CCc3cccnc32)CC1 [loratadine, reference compound] | – | – | – | – | – | – | – | – | – | – | – | – | – | – |
| – | COc1cc(O)cc2c1C(=O)c1c(cc3c(c1O)C1C=COC1O3)C2=O (stereo not drawn) [Compound] | strong inhibitory effect | 52.86 | 48.53 | 38.46 | 35.61 | 24.46 | 14.29 | 1.87 | -15.2 | -3.38 | 24.2 | 32.1 | 62.7 | 90.6 |
